Experimental findings from ChEMBL document CHEMBL1151675, “Novel marine di-Z-carotenoids: cucumariaxanthins A, B, and C from the sea cucumber Cucumaria japonica” (J Nat Prod, 1996) are described below.

Holding throughout (assay type): cell-based
Holding throughout (settings): read-out: Activity

The nature of series [1]: Cytotoxicity against human Raji cells assessed as cell viability at 1000 molar ratio.
Series [2] is described as follows: Cytotoxicity against human Raji cells assessed as cell viability at 500 molar ratio.
Series [3] in a line: Cytotoxicity against human Raji cells assessed as cell viability at 100 molar ratio.
The nature of series [4]: Cytotoxicity against human Raji cells assessed as cell viability at 10 molar ratio.

Turning to `CC(=C/C=C/C(C)=C/C=C/C=C(C)/C=C/C=C(C)\C=C\[C@H]1[C@H](C)C(=O)CCC1(C)C)/C=C/[C@H]1[C@H](C)[C@@H](O)CCC1(C)C`, the viability at 1000 molar ratio in series [1] was 70%. Besides, in series [2], the viability at 500 molar ratio is over 80%. Besides, the viability at 100 molar ratio in series [3] was over 80%. In series [4], the viability at 10 molar ratio is over 80%.
Regarding `CC(=C/C=C/C(C)=C/C=C/C=C(C)/C=C/C=C(C)\C=C\[C@H]1[C@H](C)[C@@H](O)CCC1(C)C)/C=C/[C@H]1[C@H](C)[C@@H](O)CCC1(C)C`, the viability at 1000 molar ratio in series [1] was determined as 70%. Further, the viability at 500 molar ratio in series [2] turned out to be 70%. Further, in series [3], the viability at 100 molar ratio was over 80%. In series [4], the viability at 10 molar ratio is over 80%.
Take `CC1=C(/C=C/C(C)=C/C=C/C(C)=C/C=C/C=C(C)/C=C/C=C(C)/C=C/C2=C(C)CCCC2(C)C)C(C)(C)CCC1` [BETA CAROTENE]: in series [1], the viability at 1000 molar ratio stood at 70%. Besides, the viability at 500 molar ratio in series [2] is over 80%. The viability at 100 molar ratio in series [3] is over 80%. Further, the viability at 10 molar ratio in series [4] is over 80%.
Regarding `CC(=C/C=C/C(C)=C/C=C/C=C(C)/C=C/C=C(C)\C=C\[C@H]1[C@H](C)C(=O)CCC1(C)C)/C=C/[C@H]1[C@H](C)C(=O)CCC1(C)C` [CUCUMARIAXANTHIN A], the viability at 1000 molar ratio in series [1] was 70%. Besides, in series [2], the viability at 500 molar ratio is over 80%. Also, the viability at 100 molar ratio in series [3] is over 80%. The viability at 10 molar ratio in series [4] was over 80%.
